Measured values from publication PMC6199744, “Development of Chemical Proteomics for the Folateome and Analysis of the Kinetoplastid Folateome” (ACS Infectious Diseases, 2018).
Like-named read-outs stand apart in the source and are kept apart here.

Columns and labels:
Assay type in all cases: binding
[1] = target: T1, HeLa cell extract proteins (Homo sapiens, UniProt Q14566)
T1 construct: endogenous in cells; host or cells: HeLa cell extract
T1 sequence (Q14566 1-821): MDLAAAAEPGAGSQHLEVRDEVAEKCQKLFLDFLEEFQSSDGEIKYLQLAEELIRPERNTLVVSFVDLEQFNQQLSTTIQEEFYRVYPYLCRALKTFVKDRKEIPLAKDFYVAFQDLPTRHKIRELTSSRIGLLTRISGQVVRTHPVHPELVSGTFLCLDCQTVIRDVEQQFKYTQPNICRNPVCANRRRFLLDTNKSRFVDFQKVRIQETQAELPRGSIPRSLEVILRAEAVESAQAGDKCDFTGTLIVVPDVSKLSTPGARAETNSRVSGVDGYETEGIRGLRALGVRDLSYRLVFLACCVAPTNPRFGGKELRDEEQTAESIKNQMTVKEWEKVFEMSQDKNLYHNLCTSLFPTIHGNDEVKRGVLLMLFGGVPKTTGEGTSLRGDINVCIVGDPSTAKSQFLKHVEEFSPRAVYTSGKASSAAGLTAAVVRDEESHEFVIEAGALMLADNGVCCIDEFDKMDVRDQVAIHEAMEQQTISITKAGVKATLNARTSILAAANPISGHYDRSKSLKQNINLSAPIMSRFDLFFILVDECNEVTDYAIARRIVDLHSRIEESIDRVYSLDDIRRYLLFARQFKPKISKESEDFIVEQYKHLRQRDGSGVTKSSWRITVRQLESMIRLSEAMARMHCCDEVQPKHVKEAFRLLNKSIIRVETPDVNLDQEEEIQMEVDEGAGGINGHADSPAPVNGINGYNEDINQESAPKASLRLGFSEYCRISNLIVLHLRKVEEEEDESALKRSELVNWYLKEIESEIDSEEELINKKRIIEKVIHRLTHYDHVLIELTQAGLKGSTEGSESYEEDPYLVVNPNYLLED

[2] = target: T2, HeLa cell extract proteins (Homo sapiens, UniProt P17980)
T2 construct: endogenous in cells; host or cells: HeLa cell extract
T2 sequence (P17980 whole entry): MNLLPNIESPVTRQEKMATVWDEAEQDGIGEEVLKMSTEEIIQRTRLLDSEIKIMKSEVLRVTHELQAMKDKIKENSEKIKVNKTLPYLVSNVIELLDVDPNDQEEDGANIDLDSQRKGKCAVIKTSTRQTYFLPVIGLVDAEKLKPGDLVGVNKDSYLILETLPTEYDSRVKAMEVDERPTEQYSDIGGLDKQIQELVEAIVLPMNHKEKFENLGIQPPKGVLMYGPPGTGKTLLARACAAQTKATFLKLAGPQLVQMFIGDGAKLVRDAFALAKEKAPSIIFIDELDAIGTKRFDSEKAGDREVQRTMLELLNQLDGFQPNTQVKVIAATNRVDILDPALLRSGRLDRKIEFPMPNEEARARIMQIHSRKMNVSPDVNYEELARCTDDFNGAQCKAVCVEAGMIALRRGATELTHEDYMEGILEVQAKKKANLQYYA

[3] = target: T3, HeLa cell extract proteins (Homo sapiens, UniProt P05023)
T3 construct: endogenous in cells; host or cells: HeLa cell extract

[4] = target: T4, HeLa cell extract proteins (Homo sapiens, UniProt P13798)
T4 construct: endogenous in cells; host or cells: HeLa cell extract
T4 sequence (P13798 1-732): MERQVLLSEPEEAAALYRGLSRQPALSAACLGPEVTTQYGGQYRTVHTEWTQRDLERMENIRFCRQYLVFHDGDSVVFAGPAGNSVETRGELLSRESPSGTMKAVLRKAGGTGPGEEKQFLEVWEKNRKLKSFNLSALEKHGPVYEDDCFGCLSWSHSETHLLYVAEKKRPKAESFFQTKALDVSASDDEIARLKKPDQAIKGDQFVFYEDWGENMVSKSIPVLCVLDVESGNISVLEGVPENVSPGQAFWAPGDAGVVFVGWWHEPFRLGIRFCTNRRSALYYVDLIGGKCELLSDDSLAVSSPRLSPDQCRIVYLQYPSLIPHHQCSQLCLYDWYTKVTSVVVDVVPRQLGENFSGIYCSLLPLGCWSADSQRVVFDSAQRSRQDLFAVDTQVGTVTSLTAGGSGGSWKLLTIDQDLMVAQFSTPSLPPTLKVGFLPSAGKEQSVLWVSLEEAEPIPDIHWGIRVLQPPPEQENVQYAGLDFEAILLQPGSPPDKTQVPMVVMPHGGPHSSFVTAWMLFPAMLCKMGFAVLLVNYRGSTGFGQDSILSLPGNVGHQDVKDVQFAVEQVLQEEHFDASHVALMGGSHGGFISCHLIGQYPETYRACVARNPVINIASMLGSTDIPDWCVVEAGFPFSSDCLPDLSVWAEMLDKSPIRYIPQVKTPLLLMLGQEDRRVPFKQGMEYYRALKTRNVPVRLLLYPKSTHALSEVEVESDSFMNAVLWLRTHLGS

[5] = target: T5, HeLa cell extract proteins (Homo sapiens, UniProt P14625)
T5 construct: endogenous in cells; host or cells: HeLa cell extract
T5 sequence (P14625 22-803): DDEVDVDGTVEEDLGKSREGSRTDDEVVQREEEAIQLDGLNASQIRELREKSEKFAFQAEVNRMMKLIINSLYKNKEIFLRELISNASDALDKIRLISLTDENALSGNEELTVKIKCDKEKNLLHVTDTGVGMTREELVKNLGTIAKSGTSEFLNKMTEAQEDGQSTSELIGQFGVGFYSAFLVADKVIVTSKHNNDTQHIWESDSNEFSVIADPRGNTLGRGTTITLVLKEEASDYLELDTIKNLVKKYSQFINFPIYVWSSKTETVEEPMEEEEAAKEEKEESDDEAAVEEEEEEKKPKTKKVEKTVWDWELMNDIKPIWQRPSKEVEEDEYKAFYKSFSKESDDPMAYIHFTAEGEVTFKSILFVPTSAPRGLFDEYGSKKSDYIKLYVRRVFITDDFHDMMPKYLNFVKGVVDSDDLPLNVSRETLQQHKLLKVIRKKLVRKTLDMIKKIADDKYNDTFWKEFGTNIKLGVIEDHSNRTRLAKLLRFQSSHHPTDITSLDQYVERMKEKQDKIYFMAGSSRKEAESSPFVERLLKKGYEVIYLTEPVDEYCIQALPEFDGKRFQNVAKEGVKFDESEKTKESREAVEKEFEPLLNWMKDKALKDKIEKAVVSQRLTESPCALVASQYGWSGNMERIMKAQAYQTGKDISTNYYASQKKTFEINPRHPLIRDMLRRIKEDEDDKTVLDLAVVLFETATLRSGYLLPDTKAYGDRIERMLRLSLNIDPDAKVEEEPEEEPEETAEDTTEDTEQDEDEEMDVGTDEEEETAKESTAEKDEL

[6] = target: T6, HeLa cell extract proteins (Homo sapiens, UniProt Q16881)
T6 construct: endogenous in cells; host or cells: HeLa cell extract
T6 sequence (Q16881 1-649): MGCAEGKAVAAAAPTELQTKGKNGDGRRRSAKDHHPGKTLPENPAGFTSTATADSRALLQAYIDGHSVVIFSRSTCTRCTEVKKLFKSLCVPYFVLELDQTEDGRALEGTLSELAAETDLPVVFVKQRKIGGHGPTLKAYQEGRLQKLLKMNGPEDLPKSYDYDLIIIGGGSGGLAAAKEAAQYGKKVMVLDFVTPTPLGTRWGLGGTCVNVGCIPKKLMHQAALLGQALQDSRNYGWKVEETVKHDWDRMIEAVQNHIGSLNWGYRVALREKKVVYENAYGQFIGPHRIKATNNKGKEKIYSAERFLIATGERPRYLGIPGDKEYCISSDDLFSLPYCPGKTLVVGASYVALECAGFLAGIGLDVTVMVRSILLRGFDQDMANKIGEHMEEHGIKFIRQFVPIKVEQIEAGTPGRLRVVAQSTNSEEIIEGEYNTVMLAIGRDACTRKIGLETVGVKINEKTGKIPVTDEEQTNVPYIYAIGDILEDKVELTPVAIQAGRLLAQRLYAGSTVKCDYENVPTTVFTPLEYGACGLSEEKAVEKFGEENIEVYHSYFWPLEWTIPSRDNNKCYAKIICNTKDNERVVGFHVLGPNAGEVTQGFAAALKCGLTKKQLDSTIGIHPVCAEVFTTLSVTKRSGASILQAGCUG

[7] = target: T7, HeLa cell extract proteins (Homo sapiens, UniProt P60981)
T7 construct: endogenous in cells; host or cells: HeLa cell extract
T7 sequence (P60981 1-165): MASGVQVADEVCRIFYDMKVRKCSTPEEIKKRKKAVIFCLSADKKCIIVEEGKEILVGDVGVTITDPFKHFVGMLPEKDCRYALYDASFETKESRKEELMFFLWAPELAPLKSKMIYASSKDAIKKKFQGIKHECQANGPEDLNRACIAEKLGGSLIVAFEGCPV

[8] = HeLa, protein APEH (ACYLAMINO-ACID-RELEASING ENZYME)

| SMILES | fold changes relative to vehicle control ([1]; HeLa, protein MCM6) | fold changes relative to vehicle control ([2]; protein PSMC3, HeLa) | fold changes relative to vehicle control ([3]; protein ATP1A1, HeLa) | fold changes relative to vehicle control [4, 8] | fold changes relative to vehicle control ([5]; HeLa, protein HSP90B1) | fold changes relative to vehicle control ([6]; HeLa, captured protein TXNRD1) | fold changes relative to vehicle control ([7]; HeLa, protein DSTN) | fold changes relative to vehicle control [1] | fold changes relative to vehicle control [2] | fold changes relative to vehicle control [3] | fold changes relative to vehicle control [4] | fold changes relative to vehicle control [5] | fold changes relative to vehicle control [6] | fold changes relative to vehicle control [7] | fold changes relative to vehicle control ([1]; protein MCM6, HeLa) | fold changes relative to vehicle control ([4]; HeLa, protein APEH) | fold changes relative to vehicle control ([5]; HeLa, protein HSP90B1 (E[…].)) [fold] | fold changes relative to vehicle control ([6]; protein TXNRD1, HeLa) | fold changes relative to vehicle control ([7]; HeLa, protein DSTN (DESTRIN.)) [fold] | fold changes relative to vehicle control ([5]; HeLa, protein HSP90B1 (ENDOPLASMIN PRECURSOR.)) [fold] |
| --- | --- | --- | --- | --- | --- | --- | --- | --- | --- | --- | --- | --- | --- | --- | --- | --- | --- | --- | --- | --- |
| Nc1nc2c(c(=O)[nH]1)N(C=O)C(CNc1ccc(C(=O)N[C@@H](CCC(=O)O)C(=O)O)cc1)CN2 (stereo partly shown) [LEU, leucovorin] | 1.28 | 1.02 | 0.76 | 1.08 | 1.04 | 1.18 | 0.96 |  |  |  |  |  |  |  |  |  |  |  |  |  |
| Nc1nc2[nH]cc(CCc3ccc(C(=O)N[C@@H](CCC(=O)O)C(=O)O)cc3)c2c(=O)[nH]1 [PTX, pemetrexed] |  |  |  |  |  |  |  | 1.05 | 1 | 0.96 | 0.96 | 1.14 | 1.16 | 1.05 |  |  |  |  |  |  |
| CCCCCCOc1ccc(Cc2cnc(N)nc2N)cc1 [compound 1] |  | 1.24 | 0.73 |  |  |  |  |  |  |  |  |  |  |  | 1.15 | 0.96 | 1.35 | 1.27 | 1.28 |  |
| CCCCCCOc1cccc(Cc2cnc(N)nc2N)c1 [compound 2] |  | 1.46 | 1.25 |  |  |  |  |  |  |  |  |  |  |  | 2.32 | 0.91 |  | 1.44 | 2.07 | 2.51 |
| Nc1nc2cccc(-c3ccccc3)c2n1Cc1ccc(Cl)c(Cl)c1 [compound 3] |  | 1.03 | 0.94 |  |  |  |  |  |  |  |  |  |  |  | 0.91 | 1.01 | 0.91 | 1.05 | 1.09 |  |
| NCCOCCOCC(=O)Nc1nc2ncc(CNc3ccc(C(=O)NC(CCC(=O)O)C(=O)O)cc3)nc2c(=O)[nH]1 (stereo not shown) [compound 6] | 1.3 | 1.17 | 1.05 | 0.91 | 1.18 | 1.16 | 1.16 |  |  |  |  |  |  |  |  |  |  |  |  |  |
| NCCCNc1ccc(C(=O)NC(CCC(=O)O)C(=O)O)cc1 (stereo not shown) [compound 7] | 1.06 | 1.03 | 0.92 | 1 | 0.89 | 1.11 | 0.91 |  |  |  |  |  |  |  |  |  |  |  |  |  |
